What all share (type): cell-based
Assay [1] addresses T1, ASIC3 (acid-sensing ion channel 3) (Rattus norvegicus, UniProt O35240).
T1 construct: homomeric rat ASIC3 expressed in CHO cells
T1 sequence (O35240 1-533): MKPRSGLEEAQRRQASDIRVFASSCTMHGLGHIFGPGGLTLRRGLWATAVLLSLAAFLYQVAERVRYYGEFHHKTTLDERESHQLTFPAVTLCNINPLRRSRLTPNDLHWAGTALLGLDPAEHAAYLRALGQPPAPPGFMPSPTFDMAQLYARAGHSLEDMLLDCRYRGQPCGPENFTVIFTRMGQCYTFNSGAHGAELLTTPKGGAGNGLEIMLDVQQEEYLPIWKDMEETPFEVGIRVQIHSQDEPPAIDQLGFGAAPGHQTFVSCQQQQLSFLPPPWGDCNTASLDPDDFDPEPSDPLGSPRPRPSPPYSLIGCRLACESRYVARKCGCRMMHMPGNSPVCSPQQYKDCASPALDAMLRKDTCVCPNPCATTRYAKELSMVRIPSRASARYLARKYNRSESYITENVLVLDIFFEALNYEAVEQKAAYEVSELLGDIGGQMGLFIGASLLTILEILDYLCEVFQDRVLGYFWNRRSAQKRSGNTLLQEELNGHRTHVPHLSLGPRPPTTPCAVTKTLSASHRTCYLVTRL
Description: whole-cell patch clamp, peak inhibition and sustained potentiation, on/tail currents. A general note: The patch-clamp technique gives a direct electrical read-out from membranes.

The target in assay [2] is T1, ASIC3 (acid-sensing ion channel 3). The experiment in a line: whole-cell patch clamp, sustained current potentiation by […] at pH […]. The conditions noted are these: read-out: % potentiation at 0.5 mM.
For assay [3] the target is unchanged. Description: whole-cell patch clamp, sustained current inhibition by […] at pH […]. Particulars: read-out: % inhibition at 0.5 mM.
Assay [4] shares this target. The experiment in a line: whole-cell patch clamp, sustained current inhibition at pH […].
Assay [5] has the same target. Description: whole-cell patch clamp, peak current inhibition at pH […].
For assay [6] the target is unchanged. Description: whole-cell patch clamp at […], acidic shift of activation.

Structures are written as SMILES.

Consider `Nc1c2ccccc2nc2ccccc12` [9AA, 9-aminoacridine], for which, in assay [1], the “whole-cell patch clamp, peak inhibition and sustained potentiation, on/tail curr” value is 9-Aminoacridine and IEM-2044, which inhibit peak and potentiate the sustained component of the response. Regarding `NCCC1(c2ccccc2)CCCCC1` [IEM-2044], the “whole-cell patch clamp, peak inhibition and sustained potentiation, on/tail curr” value in assay [1] was 9-Aminoacridine and IEM-2044, which inhibit peak and potentiate the sustained component of the response. With `NC1c2ccccc2-c2ccccc21` [IEM-2117], in assay [2], the activation at 500 µM was 498 ± 196%. By inhibition is commonly meant how much of the control response was suppressed. In the case of `N=C(N)NC12CC3CC(CC(C3)C1)C2` [IEM-2151], the inhibition at 500 µM in assay [3] came out at 29 ± 4%. As usually defined, the IC50 is the midpoint of a concentration-inhibition curve. A low value points to greater potency in that assay. Consider `CC12CC3CC(C)(C1)CC(NC(=N)N)(C3)C2` [IEM-2163], for which 117 ± 5.6 µM corresponded to half-maximal inhibition in assay [4] (IC50).

As to `N=C(N)NCCC1(c2ccccc2)CCCCC1` [IEM-2195], half-maximal inhibition in assay [5] (IC50) was put at 21 ± 15 µM. For `CN(C)CCC=C1c2ccccc2CCc2ccccc21` [amitriptyline], the “whole-cell patch clamp at 500 μM, acidic shift of activation” value in assay [6] is “IEM-2044 and amitriptyline have opposite effects on different channels, inducing an alkaline shift of activation on ASIC1a”.
